Several values for one entry are separate records, joined by “and”; a condition that tells them apart may be missing. Equal values may be shown once. Entries after “also recorded” stand apart in the source; their conditions may differ. Where a name gives a salt, the structure may show the parent alone. Read-outs that look alike come from different tables or passages of the source.
Columns and labels:
HIV (SF2 virus) [1] = assay: HIV infectivity assay, SF2-infected H9 cells, p24 quantification; format: cell-based; conditions: hydrochloride
Experimental: The remaining wells were filled with sterile distilled water. The cell culture plates were incubated at 37° C. and 5% CO2. After four days the medium was changed, after eight days the medium was changed and the cells were collected. After 11 days, the infection was stopped, the cells were viewed in a 10× magnification microscope and 650 μl of each cell supernatant was collected and frozen at −80° C. for further analysis. After five more days, the supernatants were thawed and used in a conventional reverse transcriptase (RT) activity assay (e.g., Roche AMPLICOR MONITOR™) or a p24 quantification assay (e.g., Abbott Laboratories, Chicago). (See U.S. Pat. No. 6,258,932 and U.S. patent application Ser. No. 10/235,158, both of which are hereby expressly incorporated by reference in its entireties).
[…] The cells in the samples were counted and then centrifuged. The cells were then resuspended in 10 ml of RPMI 1640 (containing fetal calf serum) and either […] Metabolite X or 100 μM GPG-NH2. Uninfected control and untreated control samples were also included in the experiment. The samples were then incubated overnight at 37° C. at 5% CO2.
Then, the amount of p24 in the samples was analysed using a conventional p24 detection assay (see U.S. Pat. No. 6,258,932).
Three replicate samples (“replicates”) of uninfected samples and untreated samples were also included in the experiment as controls. The inhibition of HIV replication was monitored by quantifying the levels of p24 using a conventional detection kit.
Three replicates of unninfected samples and untreated samples were also included in the experiment as controls.

HIV (SF2 virus) [2] = assay: HIV infectivity assay, SF2-infected H9 cells, reverse transcriptase (RT) quantification in supernatant; format: cell-based; conditions: for RT mean / RT / OD405-620 / OD405-620 - Blank: fetal calf serum; for RT mean: mean of replicates; for RT: single replicate; for RT / OD405-620 / OD405-620 - Blank: listed as αHGA, hydrochloride
HIV-2 (ROD) = assay: microbe, parasite or virus in culture; format: cell-based; conditions: Human immunodeficiency virus 2, CCRF-CEM, read-out: EC50 (CEM) HIV-2 (ROD)
Experimental: Human T-lymphocytic CEM cells (4.5×10^5 cells per ml) were suspended in fresh cell culture medium and infected with HIV-1 (IIIB and NL4.3) or HIV-2 (ROD or EHO) at 100 CCID50 (1 CCID50 being the virus dose infective for 50% of the cell cultures) per ml of cell suspension. Then, 100 μl of the infected cell suspension were transferred to microplate wells, mixed with 100 μl of appropriate (freshly prepared) dilutions of the test compounds (i.e., at final concentrations of […]), and were further incubated at 37° C. After 4 to 5 days, giant cell formation was recorded microscopically in the CEM cell cultures. […] (See Table 1).
(§1) MT-4, C8166 or CEM cells (4 to 5×10^5 cells per ml) were suspended in fresh culture medium (RPMI-1640 medium supplemented with 10% fetal bovine serum (FBS) (BioWittaker Europe, Verviers, Belgium), 2 mM L-glutamine and […] NaHCO3). Subsequently, the cells were infected with HIV-1 (IIIB) or HIV-2(ROD) at ˜100 CCID50 (1 CCID50 being the dose infective for 50% of the cell cultures) per ml of cell suspension. Then, 100 μl of the infected cell suspension were transferred to 96-well microplate wells, mixed with 100 μl of the appropriate (5-fold) dilutions of the test compounds and further incubated at 37° C. After 4 to 5 days, giant cell formation was recorded microscopically in the CEM and C8166 cell cultures. The MT-4 cell cultures were treated with trypan blue and the number of viable cells was determined.

HIV-2(ROD) = assay: microbe, parasite or virus in culture
Experimental: as §1

HIV-1 (IIIB) = assay: microbe, parasite or virus in culture; conditions: Human immunodeficiency virus 1, IIIB
Experimental: as §1

**Q.** Which results are given for `NC(=O)C(N)O` (stereo not drawn) [AlphaHGA, α-Hydroxy-glycinamide hydrochloride]?
**A.** OD1 (HIV (SF2 virus) [1]; 50 μM, fetal calf serum, replicates (1)-(3)): 0.183 and 0.232 and 0.147; OD2 (HIV (SF2 virus) [1]; 50 μM, fetal calf serum): 0.185 and 0.216 and 0.139; conc p24 (HIV (SF2 virus) [1]; 50 μM, fetal calf serum): 0.26 ng/mL and 0.33 ng/mL and 0.20 ng/mL; mean OD (HIV (SF2 virus) [1]; 50 μM, fetal calf serum): 0.184 and 0.224 and 0.143; mean OD - blank (HIV (SF2 virus) [1]; 50 μM, fetal calf serum): 0.142 and 0.182 and 0.101; inhibition of HIV, accumulation of p24, compared with reference (HIV (SF2 virus) [1]; fetal calf serum): as effectively as GPG-NH2; also recorded: as effectively as G-NH2; inhibition of HIV replication, accumulation of p24 (HIV (SF2 virus) [1]; human serum): effective inhibitors of HIV replication in human serum; also recorded: inhibited HIV replication in human serum; RT mean (HIV (SF2 virus) [2]; 0.5 μM): 7539 pg/mL; RT (HIV (SF2 virus) [2]; 0.5 μM): 6982 pg/mL and 9916 pg/mL and 5721 pg/mL; OD405-620 (HIV (SF2 virus) [2]; 0.5 μM): 0.692 and 0.962 and 0.576; OD405-620 - Blank (HIV (SF2 virus) [2]; 0.5 μM): 0.666 and 0.936 and 0.55; RT mean (HIV (SF2 virus) [2]; 1 μM): 4594 pg/mL; RT (HIV (SF2 virus) [2]; 1 μM): 5590 pg/mL and 4482 pg/mL and 3710 pg/mL; OD405-620 (HIV (SF2 virus) [2]; 1 μM): 0.564 and 0.462 and 0.391; OD405-620 - Blank (HIV (SF2 virus) [2]; 1 μM): 0.538 and 0.436 and 0.365; RT mean (HIV (SF2 virus) [2]; 2 μM): 5934 pg/mL; RT (HIV (SF2 virus) [2]; 2 μM): 8003 pg/mL and 6492 pg/mL and 3308 pg/mL; RT mean (HIV (SF2 virus) [2]; 4 μM): 5315 pg/mL; RT (HIV (SF2 virus) [2]; 4 μM): 5340 pg/mL and 4688 pg/mL and 5916 pg/mL; OD405-620 (HIV (SF2 virus) [2]; 4 μM): 0.541 and 0.481 and 0.594; OD405-620 - Blank (HIV (SF2 virus) [2]; 4 μM): 0.515 and 0.455 and 0.568; RT mean (HIV (SF2 virus) [2]; 8 μM): 5300 pg/mL; RT (HIV (SF2 virus) [2]; 8 μM): 6688 pg/mL and 4971 pg/mL and 4242 pg/mL; OD405-620 (HIV (SF2 virus) [2]; 8 μM): 0.665 and 0.507 and 0.44; OD405-620 - Blank (HIV (SF2 virus) [2]; 8 μM): 0.639 and 0.481 and 0.414; RT mean (HIV (SF2 virus) [2]; 16 μM): 1134 pg/mL; RT (HIV (SF2 virus) [2]; 16 μM): 1514 pg/mL and 666 pg/mL and 1221 pg/mL; OD405-620 (HIV (SF2 virus) [2]; 16 μM): 0.189 and 0.111 and 0.162; OD405-620 - Blank (HIV (SF2 virus) [2]; 16 μM): 0.163 and 0.085 and 0.136; HIV replication at 25 μM (HIV (SF2 virus) [2]; 25 μM): neglible levels; RT mean (HIV (SF2 virus) [2]; 32 μM): 72 pg/mL; RT (HIV (SF2 virus) [2]; 32 μM): 48 pg/mL and 70 pg/mL and 97 pg/mL; OD405-620 (HIV (SF2 virus) [2]; 32 μM): 0.269 and 0.373 and 0.497; OD405-620 - Blank (HIV (SF2 virus) [2]; 32 μM): 0.243 and 0.347 and 0.471; IC50 (HIV (SF2 virus) [2]; Human immunodeficiency virus 1, H9, 264 h): 6 to 9 µM; stability to incubation at 37° C. (HIV (SF2 virus) [2]; diluted sample, antiretroviral activity compared with freshly diluted compound): stable to incubation at 37 °C for at least three days; concentration for appreciable inhibition of HIV replication (HIV (SF2 virus) [2]; whether heat-treated or not): above 8 μM; concentration for better antiretroviral activity (HIV (SF2 virus) [2]; whether heat-treated or not): above 16 μM; concentration for very efficient inhibition of HIV replication (HIV (SF2 virus) [2]; whether heat-treated or not): above 30 μM; EC50 (HIV-2 (ROD)): 52 ± 23 µM; EC50 (HIV-2(ROD); Human immunodeficiency virus 2, C8166, read-out: EC50 (C8166) HIV-2 (ROD)): 125 µM; EC50 (HIV-2(ROD); Human immunodeficiency virus 2, MT4, read-out: EC50 (MT-4) HIV-2 (ROD)): ≥ 500 µM; EC50 (HIV-2(ROD); read-out: EC50 (MT-4) HIV-2 (ROD), Table 20): ≥ 500 µM; EC50 (HIV-1 (IIIB); C8166, read-out: EC50 (C8166) HIV-1 (IIIB)): 200 µM; EC50 (HIV-1 (IIIB); MT4, read-out: EC50 (MT-4) HIV-1 (IIIB)): ≥ 500 µM; EC50 (HIV-1 (IIIB); MT4, read-out: EC50 (MT-4) HIV-1(IIIB)): ≥ 500 µM

Source: US20080076824A1, “Compounds That Inhibit Replication Of Human Immunodeficiency Virus” (priority 2004, published 2008)
